# Source: patent publication US20260130933A1, “PHARMACEUTICAL COMPOSITION FOR PREVENTION OR TREATMENT OF NEPHROPATHY AND/OR DIABETES MELLITUS, COMPRISING ENAVOGLIFLOZIN” (DAEWOONG PHARMACEUTICAL CO., LTD., priority 2022, published 2026)
# Experiment: Example 3: phase 3 trial, enavogliflozin 0.3 mg vs dapagliflozin 10 mg once a day for 24 weeks added to metformin and gemigliptin in patients with type 2 diabetes (same endpoints, rescue drug)
# Format: in vivo, human
# Experimental: 1) when Metformin (≥1,000 mg/Day) was Administered at a Constant Dose for at Least 8 Weeks Prior to Pre-Visit (Pre-Screening) • Metformin (≥1,000 mg/day) and gemigliptin (50 mg/day) were co-administered during the 8-week stabilization period. […] 4) when Metformin (≥1,000 mg/Day) and Gemigliptin (50 mg/Day) were Co-Administered at Constant Doses for at Least 8 Weeks Prior to Pre-Visit (Prescreening) • Without a separate stabilization period, Pre-visit (pre-screening) was Visit 1 (screening).
# Subjects who met the inclusion/exclusion criteria continued to receive metformin and gemigliptin while receiving a placebo of the clinical trial drug in a single-blind (subject-blinded) state for a 2-week run-in period.
# Here, the randomized subjects were stratified according to the administration therapy (co-administration with two or less agents (one or two agents) or three or more agents) of a conventional hypoglycemic agent (before washout of another hypoglycemic agent) within 24 weeks prior to obtaining written informed consent and by an HbA1c value (<8% or ≥8%) at Visit 1 (screening) measured in the central laboratory.
# The randomized subjects were administered two tablets of the clinical trial drug corresponding to each administration group once a day, and then visited the institution at weeks 6, 12, 18, and 24 during the 24-week administration period to conduct efficacy and safety assessments. In addition, during the clinical trial period, they were instructed to exercise regularly and control their diet without changing their daily life patterns.
# • 1) Change in HbA1c at week 24 after administration of clinical trial drug compared to Visit 2 (randomization)
# • 1) Change in HbA1c at each time point of weeks 6, 12, and 18 after administration of clinical trial drug compared to Visit 2 (randomization) • 2) Change in FPG at each time point of weeks 6, 12, 18, and 24 after administration of clinical trial drug compared to Visit 2 (randomization) • 3) Proportion of subjects achieving HbA1c<7% at each time point of weeks 6, 12, 18, and 24 after administration of clinical trial drug • 4) Proportion of subjects achieving HbA1c<6.5% at each time point of weeks 6, 12, 18, and 24 after administration of clinical trial drug • 5) Proportion of subjects achieving therapeutic response (HbA1c change (HbA1c at Visit 2—HbA1c at each evaluation time point)>0.5% or HbA1c<7% at each evaluation time point compared to Visit 2 (randomization)) at each time point of weeks 6, 12, 18, and 24 after administration of clinical trial drug • 6) Proportion of subjects achieving therapeutic response (HbA1c change (HbA1c at Visit 2—HbA1c at each evaluation time point)>0.7% or HbA1c<7% at each evaluation time point compared to Visit 2 (randomization)) at each time point of weeks 6, 12, 18, and 24 after administration of clinical trial drug • 7) Proportion of subjects achieving therapeutic response (HbA1c change (HbA1c at Visit 2—HbA1c at each evaluation time point)>1% or HbA1c<7% at each evaluation time point compared to Visit 2 (randomization)) at each time point of weeks 6, 12, 18, and 24 after administration of clinical trial drug
# [1] = week 12, per-protocol set, enavogliflozin 0.3 mg, dapagliflozin 10 mg
# [2] = week 18, modified per-protocol set 1, enavogliflozin 0.3 mg vs dapagliflozin 10 mg
# [3] = week 18, modified per-protocol set 1, enavogliflozin 0.3 mg, dapagliflozin 10 mg
# [4] = week 18, modified per-protocol set 2
smiles,measurement,setting,value
"OC[C@H]1O[C@@H](c2cc(Cc3ccc(C4CC4)cc3)c(Cl)c3c2CCO3)[C@H](O)[C@@H](O)[C@@H]1O [Enavogliflozin, (2S,3R,4R,5S,6R)-2-(7-chloro-6 (4-cyclopropylbenzyl)-2,3-dihydrobenzofuran-4-yl)-6-(hydroxymethyl)tetrahydro-2H-pyran-3,4,5-triol]","HbA1c, Median",[1],6.83%
same,"Subjects achieving HbA1c target of <6.5%, (%)",[1],23.08%
same,"Subjects achieving HbA1c target of <7%, %",[1],67.52%
same,"body weight, Median",[1],65.80 kg
same,"Subjects achieving therapeutic glycemic response 1, %","week 12, per-protocol set, response 1 = HbA1c change >0.5% or HbA1c <7%, enavogliflozin 0.3 mg, dapagliflozin 10 mg",89.74%
same,"Subjects achieving therapeutic glycemic response 2, %","week 12, per-protocol set, response 2 = HbA1c change >0.7% or HbA1c <7%, enavogliflozin 0.3 mg, dapagliflozin 10 mg",85.47%
same,"Subjects achieving therapeutic glycemic response 3, %","week 12, per-protocol set, response 3 = HbA1c change >1% or HbA1c <7%, enavogliflozin 0.3 mg, dapagliflozin 10 mg",78.63%
same,"FPG change from baseline, LS mean (SE)",week 18,−27.77(1.63) mg/dL
same,"HDL-C change from baseline, LS mean (SE)",week 18,3.82(0.64) mg/dL
same,"HOMA-IR change from baseline, LS mean (SE)",week 18,−1.14(0.11)
same,"HOMA-β change from baseline, LS mean (SE)",week 18,5.97(2.27)
same,"HbA1c change from baseline, LS mean (SE)",week 18,−0.83(0.05) % p
same,"LDL-C change from baseline, LS mean (SE)",week 18,0.29(1.63) mg/dL
same,Subjects achieving therapeutic response (HbA1c change >0.5% or HbA1c<7%),week 18,82.91%
same,"UACR change from baseline, LS mean (SE)",week 18,−11.08(3.89) g/kg
same,"UGCR change from baseline, LS mean (SE)",week 18,58.74(2.33) mg/mg
same,"adiponectin change from baseline, LS mean (SE)",week 18,0.78(0.33) μg/mL
same,"body weight change from baseline, LS mean (SE)",week 18,−3.16(0.24) kg
same,"diastolic blood pressure change from baseline, LS mean (SE)",week 18,−3.41(0.71) mmHg
same,"fasting C-peptide change from baseline, LS mean (SE)",week 18,−0.08(0.02) ng/mL
same,"leptin change from baseline, LS mean (SE)",week 18,−1.46(0.52) ng/ml
same,"systolic blood pressure change from baseline, LS mean (SE)",week 18,−6.82(0.92) mmHg
same,"total cholesterol change from baseline, LS mean (SE)",week 18,4.27(1.94) mg/dL
same,"triglyceride change from baseline, LS mean (SE)",week 18,−11.64(4.46) mg/dL
same,"FPG change from baseline, LS mean difference","week 18, vs dapagliflozin",-4.22 mg/dL
same,"HDL-C change from baseline, LS mean difference","week 18, vs dapagliflozin",0.40 mg/dL
same,"HOMA-IR change from baseline, LS mean difference","week 18, vs dapagliflozin",−0.13
same,"HOMA-β change from baseline, LS mean difference","week 18, vs dapagliflozin",1.48
same,"HbA1c change from baseline, LS mean difference","week 18, vs dapagliflozin",−0.07 % p
same,"LDL-C change from baseline, LS mean difference","week 18, vs dapagliflozin",-1.10 mg/dL
same,Odds ratio for achieving HbA1c<6.5%,"week 18, vs dapagliflozin",1.20
same,Odds ratio for achieving HbA1c<7%,"week 18, vs dapagliflozin",1.36
same,"Odds ratio, therapeutic response (HbA1c change >0.5% or HbA1c<7%)","week 18, vs dapagliflozin",1.02
same,"Odds ratio, therapeutic response (HbA1c change >0.7% or HbA1c<7%)","week 18, vs dapagliflozin",1.09
same,"Odds ratio, therapeutic response (HbA1c change >1% or HbA1c<7%)","week 18, vs dapagliflozin",1.22
same,"UACR change from baseline, LS mean difference","week 18, vs dapagliflozin",-2.18 g/kg
same,"UGCR change from baseline, LS mean difference","week 18, vs dapagliflozin",13.34 mg/mg
same,"adiponectin change from baseline, LS mean difference","week 18, vs dapagliflozin",0.42 µg/mL
same,"body weight change from baseline, LS mean difference","week 18, vs dapagliflozin",-0.15 kg
same,"diastolic blood pressure change from baseline, LS mean difference","week 18, vs dapagliflozin",−0.99 mmHg
same,"fasting C-peptide change from baseline, LS mean difference","week 18, vs dapagliflozin",-0.02 ng/mL
same,"leptin change from baseline, LS mean difference","week 18, vs dapagliflozin",-0.40 ng/mL
same,"systolic blood pressure change from baseline, LS mean difference","week 18, vs dapagliflozin",−1.66 mmHg
same,"total cholesterol change from baseline, LS mean difference","week 18, vs dapagliflozin",0.61 mg/dL
same,"triglyceride change from baseline, LS mean difference","week 18, vs dapagliflozin",0.75 mg/dL
same,"Change from baseline in HDL-C, ANCOVA LS mean difference",[2],0.40 mg/dL
same,"Change from baseline in LDL-C, ANCOVA LS mean difference",[2],-1.10 mg/dL
same,"Change from baseline in total cholesterol, ANCOVA LS mean difference",[2],0.61 mg/dL
same,"Change from baseline in triglycerides, ANCOVA LS mean difference",[2],0.75 mg/dL
same,"Change from baseline in HDL-C, ANCOVA LS mean",[3],3.82 mg/dL
same,"Change from baseline in HDL-C, Mean",[3],4.09 mg/dL
same,"Change from baseline in HDL-C, Median",[3],3.00 mg/dL
same,"Change from baseline in LDL-C, ANCOVA LS mean",[3],0.29 mg/dL
same,"Change from baseline in LDL-C, Mean",[3],0.94 mg/dL
same,"Change from baseline in LDL-C, Median",[3],0.00 mg/dL
same,"Change from baseline in total cholesterol, ANCOVA LS mean",[3],4.27 mg/dL
same,"Change from baseline in total cholesterol, Mean",[3],5.06 mg/dL
same,"Change from baseline in total cholesterol, Median",[3],3.00 mg/dL
same,"Change from baseline in triglycerides, ANCOVA LS mean",[3],-11.64 mg/dL
same,"Change from baseline in triglycerides, Mean",[3],-9.60 mg/dL
same,"Change from baseline in triglycerides, Median",[3],-2.00 mg/dL
same,"Fasting HDL-C, Mean",[3],50.17 mg/dL
same,"Fasting HDL-C, Median",[3],49.50 mg/dL
same,"Fasting LDL-C, Mean",[3],72.10 mg/dL
same,"Fasting LDL-C, Median",[3],68.00 mg/dL
same,"Fasting total cholesterol, Mean",[3],139.38 mg/dL
same,"Fasting triglycerides, Mean",[3],109.52 mg/dL
same,"Fasting triglycerides, Median",[3],95.50 mg/dL
same,"fasting Total cholesterol, Median",[3],134.00 mg/dL
same,"Change from baseline in diastolic blood pressure, ANCOVA LS mean",[4],−3.41 mmHg
same,"Change from baseline in diastolic blood pressure, LS mean difference (enavogliflozin − dapagliflozin)",[4],−0.99 mmHg
same,"Change from baseline in diastolic blood pressure, Mean",[4],−4.03 mmHg
